In patent US8877759B2, “Aminopyrazines as ATR kinase inhibitors” (Vertex Pharnaceuticals Incorporated, priority 2011, dated 2014):

The molecules below were run against T1, full-length ATR (Homo sapiens, UniProt Q13535) (assay: ATR Inhibition Assay (radioactive-phosphate incorporation)). Settings: not given.
T1 construct: Assays were carried out at 25° C. in the presence of 5 nM full-length ATR
Type: biochemical
Experimental: Compounds were screened for their ability to inhibit ATR kinase using a radioactive-phosphate incorporation assay. Assays were carried out in a mixture of 50 mM Tris/HCl (pH 7.5), 10 mM MgCl2 and 1 mM DTT.
Assays were carried out at 25° C. in the presence of 5 nM full-length ATR. An assay stock buffer solution was prepared containing all of the reagents listed above, with the exception of ATP and the test compound of interest. […] The plate was pre-incubated for 10 minutes at 25° C. and the reaction initiated by addition of 15 μL [γ-33P]ATP (final concentration 10 μM).
The reaction was stopped after […] by the addition of 30 μL 0.1M phosphoric acid containing 2 mM ATP. A multiscreen phosphocellulose filter 96-well plate (Millipore, Cat no. MAPHN0B50) was pretreated with 100 μL 0.2M phosphoric acid prior to the addition of 45 μL of the stopped assay mixture. The plate was washed with 5×200 μL 0.2M phosphoric acid.
After removing mean background values for all of the data points, Ki(app) data were calculated from non-linear regression analysis of the initial rate data using the Prism software package (GraphPad Prism version 3.0cx for Macintosh, GraphPad Software, San Diego Calif., USA).

T1 sequence (Q13535 whole entry): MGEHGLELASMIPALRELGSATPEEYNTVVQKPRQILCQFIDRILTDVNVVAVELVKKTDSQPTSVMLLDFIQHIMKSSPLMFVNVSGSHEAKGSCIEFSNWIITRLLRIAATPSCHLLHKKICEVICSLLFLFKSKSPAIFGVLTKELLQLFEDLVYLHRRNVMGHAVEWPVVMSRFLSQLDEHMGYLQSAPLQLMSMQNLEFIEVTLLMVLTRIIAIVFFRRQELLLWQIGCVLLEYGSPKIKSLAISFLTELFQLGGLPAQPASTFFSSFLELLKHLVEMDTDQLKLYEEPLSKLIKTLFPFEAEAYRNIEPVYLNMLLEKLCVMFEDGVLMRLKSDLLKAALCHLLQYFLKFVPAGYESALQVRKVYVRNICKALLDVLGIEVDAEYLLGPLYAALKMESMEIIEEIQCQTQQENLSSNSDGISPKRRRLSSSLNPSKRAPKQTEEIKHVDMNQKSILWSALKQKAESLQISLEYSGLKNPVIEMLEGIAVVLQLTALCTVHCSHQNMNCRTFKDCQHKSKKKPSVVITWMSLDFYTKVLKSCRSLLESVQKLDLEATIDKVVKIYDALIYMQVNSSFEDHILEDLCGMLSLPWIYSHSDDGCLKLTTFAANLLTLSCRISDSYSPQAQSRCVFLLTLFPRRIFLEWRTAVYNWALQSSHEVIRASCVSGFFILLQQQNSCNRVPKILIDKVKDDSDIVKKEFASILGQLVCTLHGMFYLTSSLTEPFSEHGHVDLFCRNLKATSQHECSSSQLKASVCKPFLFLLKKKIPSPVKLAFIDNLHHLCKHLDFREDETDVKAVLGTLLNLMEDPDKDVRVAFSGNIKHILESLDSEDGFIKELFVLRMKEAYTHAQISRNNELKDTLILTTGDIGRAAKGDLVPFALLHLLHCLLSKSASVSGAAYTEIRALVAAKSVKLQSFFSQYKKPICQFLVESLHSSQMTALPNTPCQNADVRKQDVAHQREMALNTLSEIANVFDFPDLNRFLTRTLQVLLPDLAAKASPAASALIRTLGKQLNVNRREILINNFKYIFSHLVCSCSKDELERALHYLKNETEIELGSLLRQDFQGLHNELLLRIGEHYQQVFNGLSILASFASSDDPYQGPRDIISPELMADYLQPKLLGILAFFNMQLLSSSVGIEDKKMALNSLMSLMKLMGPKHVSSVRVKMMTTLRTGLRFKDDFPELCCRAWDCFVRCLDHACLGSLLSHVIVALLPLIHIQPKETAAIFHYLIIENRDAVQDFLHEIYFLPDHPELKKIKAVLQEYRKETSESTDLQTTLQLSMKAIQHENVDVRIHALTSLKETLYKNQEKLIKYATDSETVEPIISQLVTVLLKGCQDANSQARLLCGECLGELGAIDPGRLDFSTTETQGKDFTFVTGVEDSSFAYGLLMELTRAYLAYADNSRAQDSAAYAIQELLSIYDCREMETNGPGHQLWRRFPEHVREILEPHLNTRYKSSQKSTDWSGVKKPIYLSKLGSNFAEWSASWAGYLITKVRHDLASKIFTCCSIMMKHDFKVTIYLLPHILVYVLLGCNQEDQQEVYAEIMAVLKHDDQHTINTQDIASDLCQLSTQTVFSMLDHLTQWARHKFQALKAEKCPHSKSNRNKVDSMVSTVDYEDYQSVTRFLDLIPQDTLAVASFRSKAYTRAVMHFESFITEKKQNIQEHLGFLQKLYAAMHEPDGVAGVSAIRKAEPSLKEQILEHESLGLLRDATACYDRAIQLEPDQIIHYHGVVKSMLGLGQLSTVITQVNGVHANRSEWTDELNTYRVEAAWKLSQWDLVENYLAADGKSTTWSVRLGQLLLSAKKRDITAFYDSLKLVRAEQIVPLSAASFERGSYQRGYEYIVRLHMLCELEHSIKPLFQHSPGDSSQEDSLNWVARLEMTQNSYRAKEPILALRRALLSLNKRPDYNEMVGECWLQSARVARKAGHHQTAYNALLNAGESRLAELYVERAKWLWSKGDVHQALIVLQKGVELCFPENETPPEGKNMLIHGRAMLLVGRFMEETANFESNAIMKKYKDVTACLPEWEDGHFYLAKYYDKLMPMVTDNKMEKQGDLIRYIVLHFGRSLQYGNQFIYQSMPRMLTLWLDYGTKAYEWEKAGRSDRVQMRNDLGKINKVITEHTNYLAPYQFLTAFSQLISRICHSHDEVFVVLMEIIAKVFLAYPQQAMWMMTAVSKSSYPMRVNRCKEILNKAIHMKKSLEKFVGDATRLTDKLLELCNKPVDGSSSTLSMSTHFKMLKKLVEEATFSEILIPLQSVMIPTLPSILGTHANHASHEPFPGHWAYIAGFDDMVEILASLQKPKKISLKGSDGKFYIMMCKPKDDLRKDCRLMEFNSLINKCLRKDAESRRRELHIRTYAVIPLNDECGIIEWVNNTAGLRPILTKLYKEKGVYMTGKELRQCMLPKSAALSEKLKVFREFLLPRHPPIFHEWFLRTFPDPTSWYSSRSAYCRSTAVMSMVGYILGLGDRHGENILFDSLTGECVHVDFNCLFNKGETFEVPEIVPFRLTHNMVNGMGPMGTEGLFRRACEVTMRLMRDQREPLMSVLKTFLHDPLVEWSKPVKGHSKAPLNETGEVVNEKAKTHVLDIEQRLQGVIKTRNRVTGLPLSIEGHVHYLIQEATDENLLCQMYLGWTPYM

Structure (SMILES) | Ki [nM]
CCC(C#N)(CC)c1cc(-c2cnc(N)c(-c3cc(-c4ccc(CNC)cc4)no3)n2)ccn1 [Compound I-2, 2-[4-[5-amino-6-[3-[4-(methylaminomethyl)phenyl]isoxazol-5-yl]pyrazin-2-yl]-2-pyridyl]-2-ethyl-butanenitrile] | < 1
CCCN(CCN(C)C)C(=O)c1cc(-c2cnc(N)c(-c3cc(-c4ccccc4)no3)n2)ccn1 [Compound I-91] | 5 to 20
CC(C)(c1cc(-c2cnc(N)c(-c3cc(-c4ccccc4)no3)n2)ccn1)S(C)(=O)=O [Compound I-22, 5-[2-(1-methyl-1-methylsulfonyl-ethyl)-4-pyridyl]-3-(3-phenylisoxazol-5-yl)pyrazin-2-amine] | < 1
CNCc1ccc(-c2cc(-c3nc(-c4ccnc(C(C)(C)S(C)(=O)=O)c4)cnc3N)on2)cc1 [Compound I-14, 3-[3-[4-(methylaminomethyl)phenyl]isoxazol-5-yl]-5-[2-(1-methyl-1-methylsulfonyl-ethyl)-4-pyridyl]pyrazin-2-amine] | < 1
CNCc1ccc(-c2cc(-c3nc(-c4ccnc(C5(C(N)=O)CCOCC5)c4)cnc3N)on2)cc1 [Compound I-13, 4-[4-[5-amino-6-[3-[4-(methylaminomethyl)phenyl]isoxazol-5-yl]pyrazin-2-yl]-2-pyridyl]tetrahydropyran-4-carboxamide] | < 1
CCC(C#N)c1cc(-c2cnc(N)c(-c3cc(-c4ccc(CNC)cc4)no3)n2)ccn1 (stereo not shown) [Compound I-3, 2-[4-[5-amino-6-[3-[4-(methylaminomethyl)phenyl]isoxazol-5-yl]pyrazin-2-yl]-2-pyridyl]butanenitrile] | < 1
N#CC1(c2cc(-c3cnc(N)c(-c4cc(-c5ccccc5)no4)n3)ccn2)CCOCC1 [Compound I-7, 4-[4-[5-amino-6-(3-phenylisoxazol-5-yl)pyrazin-2-yl]-2-pyridyl]tetrahydropyran-4-carbonitrile] | < 1

Continued, values first:

Ki [nM] | Structure (SMILES)
< 1 | CC(C)(C#N)c1cc(-c2cnc(N)c(-c3nnc(-c4ccc(CNC5CCOCC5)cc4)o3)n2)ccn1 [Compound I-126]
< 1 | CNCc1ccc(-c2cc(-c3nc(-c4ccnc(C(C)(C)C(N)=O)c4)cnc3N)on2)cc1 [Compound I-10, 2-[4-[5-amino-6-[3-[4-(methylaminomethyl)phenyl]isoxazol-5-yl]pyrazin-2-yl]-2-pyridyl]-2-methyl-propanamide]
< 1 | CNCc1ccc(-c2cc(-c3nc(-c4ccnc(C(C)(C)C#N)c4)cnc3N)on2)cc1 [Compound I-1, 2-[4-[5-amino-6-[3-[4-(methylaminomethyl)phenyl]isoxazol-5-yl]pyrazin-2-yl]-2-pyridyl]-2-methyl-propanenitrile]
< 1 | CC(C)(C#N)c1cc(-c2cnc(N)c(-c3nnc(-c4ccc(NCC5CNC5)cc4)o3)n2)ccn1 [Compound I-104]
< 1 | CC(C)(C#N)c1cc(-c2cnc(N)c(-c3cc(-c4ccc(CNC5CCOCC5)cc4)no3)n2)ccn1 [Compound I-53, 2-(4-(5-amino-6-(3-(4-(((tetrahydro-2H-pyran-4-yl)amino)methyl)phenyl)isoxazol-5-yl)pyrazin-2-yl)pyridin-2-yl)-2-methylpropanenitrile]
< 1 | CC(C)(C#N)c1cc(-c2cnc(N)c(-c3cc(-c4ccc(C5CNCCN5)cc4)no3)n2)ccn1 (stereo not shown) [Compound I-41, 2-[4-[5-amino-6-[3-(4-piperazin-2-ylphenyl)isoxazol-5-yl]pyrazin-2-yl]-2-pyridyl]-2-methyl-propanenitrile]
< 1 | CC(C)(C#N)c1cc(-c2cnc(N)c(-c3cc(-c4ccc(C5COCCN5)cc4)no3)n2)ccn1 (stereo not shown) [Compound I-60]
5 to 20 | CC(C)(C#N)c1cc(-c2cnc(N)c(-c3nnc(-c4ccc(N5CCCC5CN)cc4)o3)n2)ccn1 (stereo not shown) [Compound I-68]
< 1 | CC(C)(C#N)c1cc(-c2cnc(N)c(-c3nnc(-c4ccc(NC5CNC5)cc4)o3)n2)ccn1 [Compound I-107]
< 1 | CC(C)(C#N)c1cc(-c2cnc(N)c(-c3nnc(-c4cc5c(s4)CNCC5)o3)n2)ccn1 [Compound I-111]
< 1 | CC(C)(C#N)c1cc(-c2cnc(N)c(-c3cc(-c4ccccc4)no3)n2)ccn1 [Compound I-5, 2-[4-[5-amino-6-(3-phenylisoxazol-5-yl)pyrazin-2-yl]-2-pyridyl]-2-methyl-propanenitrile]
< 1 | CN(C)CCNc1cc(F)ccc1-c1nnc(-c2nc(-c3ccnc(C(C)(C)C#N)c3)cnc2N)o1 [Compound I-108]
5 to 20 | Cc1ccccc1-c1cc(-c2nc(-c3ccnc(C4(C#N)CCNCC4)c3)cnc2N)on1 [Compound I-25, 4-[4-[5-amino-6-[3-(o-tolyl)isoxazol-5-yl]pyrazin-2-yl]-2-pyridyl]piperidine-4-carbonitrile]
< 1 | CNCCN(C)c1ccc(-c2nnc(-c3nc(-c4ccnc(C(C)(C)C#N)c4)cnc3N)o2)cc1 [Compound I-78]
< 1 | CC(C)(C#N)c1cc(-c2cnc(N)c(-c3cc(-c4ccc(C(N)CF)cc4)no3)n2)ccn1 (stereo not shown) [Compound I-16, 2-[4-[5-amino-6-[3-[4-(1-amino-2-fluoro-ethyl)phenyl]isoxazol-5-yl]pyrazin-2-yl]-2-pyridyl]-2-methyl-propanenitrile]
< 1 | CC(C)(C#N)c1cc(-c2cnc(N)c(-c3nnc(-c4ccc(OCCN)cc4)o3)n2)ccn1 [Compound I-112]
< 1 | CC(C)(C#N)c1cc(-c2cnc(N)c(-c3nnc(-c4cccc(N5CC(N)C5)c4)o3)n2)ccn1 [Compound I-110]
< 1 | CC(C)(C#N)c1cc(-c2cnc(N)c(-c3nnc(-c4ccc(N5CCCC(N)C5)cc4)o3)n2)ccn1 (stereo not shown) [Compound I-61]
5 to 20 | CC(C)(C(=O)N1CCNCC1)c1cc(-c2cnc(N)c(-c3cc(-c4ccccc4)no3)n2)ccn1 [Compound I-20, 2-[4-[5-amino-6-(3-phenylisoxazol-5-yl)pyrazin-2-yl]-2-pyridyl]-2-methyl-1-piperazin-1-yl-propan-1-one]
< 1 | CC(C)(C#N)c1cc(-c2cnc(N)c(-c3nnc(-c4ccc(C5=CCNCC5)cc4)o3)n2)ccn1 [Compound I-128]
< 1 | CC(C)(C#N)c1cc(-c2cnc(N)c(-c3nnc(-c4ccc(OCCN5CCCC5)cc4)o3)n2)ccn1 [Compound I-69]
< 1 | CC(N)CNc1ccc(-c2nnc(-c3nc(-c4ccnc(C(C)(C)C#N)c4)cnc3N)o2)cc1 (stereo not shown) [Compound I-130]

Same assay, conditions: Ki(app); 5 nM full-length ATR, 10 μM [γ-33P]ATP, 800 μM target peptide, 25° C.

Ki [nM] | Structure (SMILES) | ATR Ki
– | CC(C)(C#N)c1cc(-c2cnc(N)c(-c3nnc(-c4ccc(N5CCC5)cc4)o3)n2)ccn1 [Compound I-118] | +++ (Compounds with a Ki value >5 nM but ≦1 nM are marked with “+++.”)
– | CC(C)(C#N)c1cc(-c2cnc(N)c(-c3nnc(-c4ccc(C5=NCCN5)cc4)o3)n2)ccn1 [Compound I-129] | +++ (Compounds with a Ki value >5 nM but ≦1 nM are marked with “+++.”)
< 1 | CC(C)(C#N)c1cc(-c2cnc(N)c(-c3cc(-c4ccc(CN[C@H]5CCOC5)cc4)no3)n2)ccn1 [Compound I-19, 2-[4-[5-amino-6-[3-[4-[[[(3S)-tetrahydrofuran-3-yl]amino]methyl]phenyl]isoxazol-5-yl]pyrazin-2-yl]-2-pyridyl]-2-methyl-propanenitrile] | –
– | N#CC1(c2cc(-c3cnc(N)c(-c4cc(-c5ccc(O)cc5)no4)n3)ccn2)CCNCC1 [Compound I-32, 4-[4-[5-amino-6-[3-(4-hydroxyphenyl)isoxazol-5-yl]pyrazin-2-yl]-2-pyridyl]piperidine-4-carbonitrile] | +++ (Compounds with a Ki value >5 nM but ≦1 nM are marked with “+++.”)
– | CC(C)(C#N)c1cc(-c2cnc(N)c(-c3nnc(-c4ccc(N5CCC[C@H](N)C5)cc4)o3)n2)ccn1 [Compound I-64] | +++ (Compounds with a Ki value >5 nM but ≦1 nM are marked with “+++.”)
– | CN(C)C(=O)C(C)(C)c1cc(-c2cnc(N)c(-c3cc(-c4ccccc4)no3)n2)ccn1 [Compound I-39, 2-[4-[5-amino-6-(3-phenylisoxazol-5-yl)pyrazin-2-yl]-2-pyridyl]-N,N,2-trimethyl-propanamide] | +++ (Compounds with a Ki value >5 nM but ≦1 nM are marked with “+++.”)
– | CCCN(CCOC)C(=O)c1cc(-c2cnc(N)c(-c3cc(-c4ccccc4)no3)n2)ccn1 [Compound I-132] | +++ (Compounds with a Ki value >5 nM but ≦1 nM are marked with “+++.”)
– | Cc1ccsc1-c1cc(-c2nc(-c3ccnc(C4(C#N)CCNCC4)c3)cnc2N)on1 [Compound I-24, 4-[4-[5-amino-6-[3-(3-methyl-2-thienyl)isoxazol-5-yl]pyrazin-2-yl]-2-pyridyl]piperidine-4-carbonitrile] | +++ (Compounds with a Ki value >5 nM but ≦1 nM are marked with “+++.”)
– | CN(C)CCNc1ccc(-c2nnc(-c3nc(-c4ccnc(C(C)(C)C#N)c4)cnc3N)o2)cc1 [Compound I-114] | +++ (Compounds with a Ki value >5 nM but ≦1 nM are marked with “+++.”)
– | CC(C)(C#N)c1cc(-c2cnc(N)c(-c3nnc(-c4ccc(C5CCNCC5)cc4)o3)n2)ccn1 [Compound I-109] | +++ (Compounds with a Ki value >5 nM but ≦1 nM are marked with “+++.”)
– | N#CC1(c2cc(-c3cnc(N)c(-c4cc(-c5ccccc5)no4)n3)ccn2)CCCNC1 (stereo not shown) [Compound I-12, 3-[4-[5-amino-6-(3-phenylisoxazol-5-yl)pyrazin-2-yl]-2-pyridyl]piperidine-3-carbonitrile] | +++ (Compounds with a Ki value >5 nM but ≦1 nM are marked with “+++.”)
